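Grown in 96-well plates, cells were treated for 48 hours with each compound at five concentrations. Insufficient inhibition: endpoint recorded as highest concentration tested. GI50: concentration for 50% inhibition of growth. TGI: total growth inhibition.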
Experiments:
Test in all cases: NCI-60 cell line screen, 48 h
[1] = system: HT29 colon
[2] = system: HCT-116 colon
[3] = system: NCI-H460 lung
[4] = system: COLO 205 colon
[5] = system: KM20L2 colon
[6] = system: SK-OV-3 ovarian
[7] = system: OVCAR-5 ovarian
[8] = system: 786-0 renal
[9] = system: SK-MEL-2 melanoma
[10] = system: SF-268 CNS
[11] = system: DMS 114 small cell lung
[12] = system: IGROV1 ovarian
[13] = system: TK-10 renal
[14] = system: ACHN renal
[15] = system: HL-60(TB) leukemia
[16] = system: MALME-3M melanoma
[17] = system: NCI-H522 lung
[18] = system: SF-295 CNS
[19] = system: CCRF-CEM leukemia
[20] = system: LOX IMVI melanoma
[21] = system: DLD-1 colon
[22] = system: U251 CNS
[23] = system: HCC-2998 colon
[24] = system: UACC-62 melanoma
[25] = system: SK-MEL-5 melanoma
[26] = system: OVCAR-8 ovarian
[27] = system: SF-539 CNS
[28] = system: KM12 colon
[29] = system: NCI-H23 lung
[30] = system: UO-31 renal
[31] = system: OVCAR-4 ovarian
[32] = system: MOLT-4 leukemia
[33] = system: SK-MEL-28 melanoma
[34] = system: HCT-15 colon
[35] = system: CAKI-1 renal
[36] = system: NCI-H226 lung
[37] = system: K-562 leukemia
[38] = system: SNB-19 CNS
[39] = system: XF 498 CNS
[40] = system: EKVX NSCLC
[41] = system: A549 NSCLC
[42] = system: SW-620 colon
[43] = system: SR leukemia
[44] = system: HOP-18 NSCLC
[45] = system: DMS 273 small cell lung
[46] = system: LXFL 529 NSCLC
[47] = system: RPMI-8226 leukemia
[48] = system: UACC-257 melanoma
[49] = system: SNB-75 CNS
[50] = system: HOP-92 NSCLC

With `CC(=O)[CH-]C(C)=O.CC(=O)[CH-]C(C)=O.[O-]c1ccccc1.[O-]c1ccccc1.[Ti+4]` the GI50 [1] was over 100 µM, the TGI [1] was over 100 µM and the GI50 [2] was over 100 µM. It also gave a TGI [2] of over 100 µM, a GI50 [3] of over 100 µM and a TGI [3] of over 100 µM. It also gave a GI50 [4] of over 100 µM, a TGI [4] of over 100 µM and a GI50 [5] of over 100 µM. For the same compound, the TGI [5] was over 100 µM, the GI50 [6] was over 100 µM and the TGI [6] was over 100 µM. It also gave a GI50 [7] of over 100 µM, a TGI [7] of over 100 µM and a GI50 [8] of over 100 µM. For the same compound, the TGI [8] was over 100 µM, the GI50 [9] was over 100 µM and the TGI [9] was over 100 µM. The GI50 [10] was over 100 µM, the TGI [10] was over 100 µM and the GI50 [11] was over 100 µM. The TGI [11] was over 100 µM, the GI50 [12] was over 100 µM and the TGI [12] was over 100 µM. For the same compound, the GI50 [13] was over 100 µM, the TGI [13] was over 100 µM and the GI50 [14] was over 100 µM. The TGI [14] was over 100 µM, the GI50 [15] was over 100 µM and the TGI [15] was over 100 µM. The GI50 [16] was over 100 µM, the TGI [16] was over 100 µM and the GI50 [17] was over 100 µM. It also gave a TGI [17] of over 100 µM, a GI50 [18] of over 100 µM and a TGI [18] of over 100 µM. It also gave a GI50 [19] of over 100 µM, a TGI [19] of over 100 µM and a GI50 [20] of over 100 µM. For the same compound, the TGI [20] was over 100 µM, the GI50 [21] was over 100 µM and the TGI [21] was over 100 µM. It also gave a GI50 [22] of over 100 µM, a TGI [22] of over 100 µM and a GI50 [23] of over 100 µM. It also gave a TGI [23] of over 100 µM, a GI50 [24] of over 100 µM and a TGI [24] of over 100 µM. For the same compound, the GI50 [25] was over 100 µM, the TGI [25] was over 100 µM and the GI50 [26] was over 100 µM. The TGI [26] was over 100 µM, the GI50 [27] was over 100 µM and the TGI [27] was over 100 µM. For the same compound, the GI50 [28] was over 100 µM, the TGI [28] was over 100 µM and the GI50 [29] was over 100 µM. It also gave a TGI [29] of over 100 µM, a GI50 [30] of over 100 µM and a TGI [30] of over 100 µM. It also gave a GI50 [31] of over 100 µM, a TGI [31] of over 100 µM and a GI50 [32] of over 100 µM. It also gave a TGI [32] of over 100 µM, a GI50 [33] of over 100 µM and a TGI [33] of over 100 µM. It also gave a GI50 [34] of over 100 µM, a TGI [34] of over 100 µM and a GI50 [35] of over 100 µM. The TGI [35] was over 100 µM, the GI50 [36] was over 100 µM and the TGI [36] was over 100 µM. It also gave a GI50 [37] of over 100 µM, a TGI [37] of over 100 µM and a GI50 [38] of over 100 µM. The TGI [38] was over 100 µM, the GI50 [39] was over 100 µM and the TGI [39] was over 100 µM. The GI50 [40] was over 100 µM, the TGI [40] was over 100 µM and the GI50 [41] was over 100 µM. For the same compound, the TGI [41] was over 100 µM, the GI50 [42] was over 100 µM and the TGI [42] was over 100 µM. For the same compound, the GI50 [43] was over 100 µM, the TGI [43] was over 100 µM and the GI50 [44] was over 100 µM. The TGI [44] was over 100 µM, the GI50 [45] was over 100 µM and the TGI [45] was over 100 µM. It also gave a GI50 [46] of over 100 µM, a TGI [46] of over 100 µM and a GI50 [47] of over 100 µM. It also gave a TGI [47] of over 100 µM, a GI50 [48] of over 100 µM and a TGI [48] of over 100 µM. The GI50 [49] was over 100 µM, the TGI [49] was over 100 µM and the GI50 [50] was over 100 µM. It also gave a TGI [50] of over 100 µM.

From PubChem BioAssay (NCI)
